Seven compounds from ChEMBL document CHEMBL1201862, “PubChem BioAssay data set” (2004) can be followed below.

Test systems include UACC-62; U-251; SK-MEL-28; OVCAR-4; HCT-116; RXF 393; PC-3; CCRF-CEM; MCF7; HCC 2998; CAKI-1; UO-31; ACHN; MDA-MB-231; OVCAR-3; KM12; HOP-62; Malme-3M; IGROV-1; OVCAR-8.
Common to all, as to assay: NCI-60 cell line screen, 48 h

Structures are written as SMILES.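 How tested: cells in 96-well plates exposed to compound for 48 hours at five concentrations. At the GI50, growth is halved.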 The source made the active and inactive calls. Cut-off read from the data, not from the text of the source: active = GI50 up to about 1.1 µM and inactive = higher. Some results are limits rather than exact numbers.

On to `N=C(N)NS(=O)(=O)c1ccc(NC(=O)c2cccc3c(NNc4ccc(S(=O)(=O)N=C(N)N)cc4)c4ccccc4nc23)cc1`, for which the GI50 was 46.9 µM (inactive) in the test on UACC-62; 28.4 µM (inactive) with U-251; 37.2 µM (inactive) in the test with SK-MEL-28; 80.5 µM (inactive) in the test on OVCAR-4; 35.7 µM (inactive) with HCT-116; > 100 µM (inactive) with RXF 393. The GI50 with PC-3 is 61 µM (inactive); with CCRF-CEM it was 19.3 µM (inactive); with MCF7, 29.9 µM (inactive); in the test with HCC 2998, 90.6 µM (inactive); in the test on CAKI-1, > 100 µM (inactive); in the test on UO-31 it was > 100 µM (inactive). The GI50 in the test on ACHN was 75 µM (inactive); in the test on MDA-MB-231, 46.6 µM (inactive); in the test on OVCAR-3 it was 38.2 µM (inactive); with KM12, > 100 µM (inactive); in the test on HOP-62 it was > 100 µM (inactive); in the test with Malme-3M, 38.2 µM (inactive). Moreover, the figures for the GI50 with IGROV-1 and in the test on OVCAR-8 were 51.5 µM (inactive) and 53.5 µM (inactive), respectively.
As for `O=C(/C=C(\Nc1ccccc1O)c1ccc(Br)cc1)C(Cl)(Cl)Cl`, the GI50 was 13.3 µM (inactive) in the test with UACC-62; 3.74 µM (inactive) in the test on U-251; 11 µM (inactive) in the test with SK-MEL-28; 5.16 µM (inactive) in the test on OVCAR-4; 10.5 µM (inactive) with HCT-116; 5.51 µM (inactive) in the test with RXF 393. Also, the GI50 with PC-3 is 2.47 µM (inactive); in the test with CCRF-CEM, 15.4 µM (inactive); in the test on MCF7 it was 5.21 µM (inactive); with HCC 2998, 2.1 µM (inactive); with CAKI-1, 6.3 µM (inactive); with UO-31, 2.68 µM (inactive). Also, the GI50 in the test with ACHN is 2.55 µM (inactive); in the test with MDA-MB-231, 6.95 µM (inactive); with OVCAR-3 it was 4.34 µM (inactive); in the test with KM12 it was 2.75 µM (inactive); with HOP-62, 13.6 µM (inactive); in the test with Malme-3M, 15.2 µM (inactive). Further, the GI50 with IGROV-1 was 10.3 µM (inactive); with OVCAR-8, 12.6 µM (inactive).
With `COC(=O)/C=C\C(C#N)(C#N)/N=C/c1cc(Br)cs1`, the GI50 in the test with UACC-62 is 17.7 µM (inactive); in the test with U-251, 13.9 µM (inactive); in the test on SK-MEL-28 it was 5.32 µM (inactive); in the test with OVCAR-4 it was 7.91 µM (inactive); with HCT-116, 1.76 µM (inactive); in the test on RXF 393 it was 2.27 µM (inactive). Moreover, the GI50 in the test on PC-3 is 5.09 µM (inactive); in the test on CCRF-CEM, 0.0914 µM (active); with MCF7, 1.51 µM (inactive); in the test with HCC 2998 it was 16 µM (inactive); with CAKI-1, 2.96 µM (inactive); in the test on UO-31, 2.14 µM (inactive). Further, the GI50 with ACHN was 2.22 µM (inactive); with MDA-MB-231, 9.35 µM (inactive); in the test with OVCAR-3, 7 µM (inactive); in the test with KM12 it was 21 µM (inactive); in the test with HOP-62, 18.6 µM (inactive); in the test on Malme-3M, 1.71 µM (inactive). Also, the figures for the GI50 in the test with IGROV-1 and in the test with OVCAR-8 were 3.44 µM (inactive) and 3.84 µM (inactive), respectively.
Take `O=C1c2c(Br)sc(Br)c2[C@H]2NC(=S)O[C@@H]12`: the GI50 in the test on UACC-62 was 15.7 µM (inactive); with U-251 it was 13.2 µM (inactive); in the test on SK-MEL-28 it was 13.2 µM (inactive); in the test on OVCAR-4, 17.1 µM (inactive); in the test on HCT-116, 10.7 µM (inactive); in the test on RXF 393 it was 13.3 µM (inactive). Also, the GI50 in the test on PC-3 is 14.5 µM (inactive); with CCRF-CEM, 2.15 µM (inactive); in the test with MCF7, 16.1 µM (inactive); with HCC 2998, 20.5 µM (inactive); in the test with CAKI-1 it was 11.8 µM (inactive); in the test with UO-31, 15.3 µM (inactive). The GI50 in the test with ACHN is 17.7 µM (inactive); with MDA-MB-231 it was 17.9 µM (inactive); with OVCAR-3, 7.94 µM (inactive); in the test with KM12, 17.9 µM (inactive); in the test on HOP-62 it was 18 µM (inactive); with Malme-3M, 15.7 µM (inactive). Moreover, the figures for the GI50 with IGROV-1 and with OVCAR-8 were 16.7 µM (inactive) and 9.82 µM (inactive), respectively.
Consider `Clc1ccc2ns[s+]c2c1`, for which the GI50 in the test on UACC-62 was 0.275 µM (active); in the test with U-251, 18.3 µM (inactive); in the test with SK-MEL-28, 17.7 µM (inactive); in the test on OVCAR-4 it was 22.4 µM (inactive); in the test on HCT-116, 1.03 µM (active); in the test on RXF 393, > 100 µM (inactive). For the same compound, the GI50 is 0.847 µM (active) with PC-3; 1.27 µM (inactive) in the test with CCRF-CEM; 3.33 µM (inactive) with MCF7; 17.5 µM (inactive) in the test on HCC 2998; 1.63 µM (inactive) with CAKI-1; 6.44 µM (inactive) in the test on UO-31. Also, the GI50 is 0.449 µM (active) with ACHN; 25.3 µM (inactive) in the test with MDA-MB-231; 31.6 µM (inactive) in the test with OVCAR-3; 3.66 µM (inactive) with KM12; 4.32 µM (inactive) in the test on HOP-62; 32.2 µM (inactive) in the test with Malme-3M. The GI50 is 40.3 µM (inactive) in the test on IGROV-1 and 20.4 µM (inactive) in the test on OVCAR-8.
With `NC(Cc1c[nH]c(I)n1)C(=O)O` (stereo not given), the GI50 is > 100 µM (inactive) in the test with UACC-62; > 100 µM (inactive) in the test on U-251; 74.1 µM (inactive) with SK-MEL-28; 49.9 µM (inactive) in the test on OVCAR-4; 81.5 µM (inactive) in the test with HCT-116; 45.2 µM (inactive) in the test on RXF 393. Also, the GI50 with PC-3 was > 100 µM (inactive); with CCRF-CEM, 22.1 µM (inactive); with MCF7, 41.4 µM (inactive); in the test with HCC 2998, 34.9 µM (inactive); with CAKI-1, 29.3 µM (inactive); in the test on UO-31, > 100 µM (inactive). The GI50 is > 100 µM (inactive) in the test with ACHN; > 100 µM (inactive) in the test on MDA-MB-231; 32.4 µM (inactive) in the test on OVCAR-3; > 100 µM (inactive) in the test with KM12; > 100 µM (inactive) in the test with HOP-62; 17.7 µM (inactive) with Malme-3M. The GI50 in the test with IGROV-1 was 67 µM (inactive); with OVCAR-8, 81.5 µM (inactive).
Turning to `C[C@@]12C(=O)OC(=O)[C@]1(C)[C@H]1CC[C@@H]2O1` [CANTHARIDIN], the GI50 in the test on UACC-62 is 2.12 µM (inactive); in the test on U-251 it was 1.41 µM (inactive); in the test with SK-MEL-28 it was 3.48 µM (inactive); in the test on OVCAR-4, 2.58 µM (inactive); with HCT-116 it was 1.98 µM (inactive); in the test on RXF 393, 0.484 µM (active). For the same compound, the GI50 with PC-3 is 0.279 µM (active); in the test with CCRF-CEM, 1.19 µM (inactive); with MCF7 it was 7.76 µM (inactive); with HCC 2998, 1.53 µM (inactive); in the test with CAKI-1, 0.791 µM (active); with UO-31, 2.64 µM (inactive). Moreover, the GI50 with ACHN is 1.18 µM (inactive); in the test with MDA-MB-231, 1.33 µM (inactive); with OVCAR-3, 0.759 µM (active); with KM12 it was 5.42 µM (inactive); with HOP-62, 2.44 µM (inactive); in the test with Malme-3M, 1.34 µM (inactive). In addition, the GI50 in the test with IGROV-1 was 2.16 µM (inactive); with OVCAR-8, 5.98 µM (inactive).
